From patent EP1228097B1, “ANTIMICROBIAL ACTIVITY OF THE FIRST CATIONIC CLUSTER OF HUMAN LACTOFERRIN” (priority 1999, dated 2005)

Key:
[1] = tested on: antibiotic resistant S. aureus; experiment: experimental thigh muscle infection; assay type: in vivo, mice; conditions: for amount with which maximum effects on the number of viable bacteria were seen: mice infected with antibiotic resistant S. aureus, i.v. injection 24 h after infection, within 24 h after injection; for antibacterial activity in infected mice (result in words): mice with thigh muscle infection with antibiotic resistant S. aureus
Experimental: All animal studies were done in compliance with the LUMC Ethical Committee and Dutch laws related to the conduct of animal experiments. […] In short, specific pathogen-free, male, Swiss mice weighing 20-25 g (Broekman Institute, Someren, The Netherlands) were anaesthetized with a single intraperitoneal injection of 0.1 ml of saline containing 1 mg fluanisone and 0.03 mg fentanyl citrate (Hypnorm, Janssen Pharmaceutics, Tilburg, The Netherlands). Preceding scintigraphy, a subcutaneous injection of 0.1 ml, containing 0.2 mg diazepam (Valium, Hoffmann-La Roche, Mijdrecht. The Netherlands) was administered. Immediately thereafter, 1x10^7 CFU of antibiotic resistant S. aureus or K. pneumoniae in 0.1 ml of saline were injected into the right thigh muscle. […] As a control, mice were injected with 0.2 ml of saline containing BSA or saline without any peptide. […] Next, the infected thigh muscles were removed and, after weighing, homogenized in 4 ml of PBS. Appropriate dilutions of the homogenates were applied onto diagnostic sensitivity test plates (Oxoid), and the number of colonies counted after an overnight culture at 37 °C. Results are expressed as the number of CFUs per gram of infected tissue. All negative cultures were assigned the values of 100 CFU/ml of homogenate, which is the lower limit of detection.

[2] = pharmacology of 99mTc-labelled protein/peptides by scintigraphy (clearance, organ uptake, amount at the site of infection); assay type: in vivo, mice; conditions: for mean t1/2 (removal from the circulation): mouse, in vivo, iv; for Uptake by bladder / Uptake by kidneys / Uptake by liver: 1 nmole 99mTc-labelled, mice infected with antibiotic resistant S. aureus
From the text: Labeling yields amounted to 88-95%.

L. monocytogenes = experiment: in vitro assay for antibacterial activity (number of viable bacteria); assay type: cell-based, Listeria monocytogenes strain EGD; conditions: for killing of L. monocytogenes (result in words): dose-effect studies, proteins in PBS-Tw, synthetic peptides in NaPB-TSB
Experimental: (§1) Listeria monocytogenes strain EGD, Klebsiella pneumoniae (43816), and Escherichia coli O54 were purchased from the American Type Culture Collection (Rockville, MD). Antibiotic resistant S. aureus, K. pneumoniae and E. coli were cultured overnight in nutrient broth (Oxoid, Basingstoke, UK) at 37°C, diluted in tryptase soya broth (TSB, Oxoid) and cultured for an additional 2 h in a shaking waterbath at 37 °C. L. monocytogenes was cultured overnight in brain heart infusion broth (BHI, Oxoid) at 37°C, diluted and cultured for an additional 2 h in a shaking waterbath at 37°C.
(§2) In short, bacteria were washed with phosphate-buffered saline (PBS) (pH 7.4) and diluted to a concentration of approximately 2x10^6 CFU/ml of phosphate-buffered saline (pH 6.0) supplemented with 0.1 % (v/v) Tween-20 (hereafter designated as PBS-Tw). […] At various time intervals (range 0-4 h) after incubation at 37 °C the number of viable bacteria was determined microbiologically. As negative controls, bovine serum albumin (BSA; Sigma) or no peptide were included.

[3] = tested on: antibiotic resistant S. aureus; experiment: as above; assay type: cell-based, Staphylococcus aureus strain 2141; conditions: for killing of antibiotic resistant S. aureus (result in words): dose-effect studies, proteins in PBS-Tw, synthetic peptides in NaPB-TSB
Experimental: as §1, §2

K. pneumoniae = experiment: as above; assay type: cell-based, Klebsiella pneumoniae (43816); conditions: proteins in PBS-Tw, synthetic peptides in NaPB-TSB
Experimental: as §1, §2

E. coli = experiment: as above; assay type: cell-based, Escherichia coli O54; conditions: synthetic peptides in NaPB-TSB, 1 h at 37 °C
Experimental: as §1
[…] […] At various time intervals (range 0-4 h) after incubation at 37 °C the number of viable bacteria was determined microbiologically. As negative controls, bovine serum albumin (BSA; Sigma) or no peptide were included.

bacteria = experiment: in vitro assay for antibacterial activity, bacteria not specified; assay type: cell-based; conditions: L. monocytogenes, antibiotic resistant S. aureus, K. pneumoniae, E. coli (FIGS. 2A-2D); 7 µM, 1 h at 37 °C
Experimental: as §1
In short, bacteria were washed with phosphate-buffered saline (PBS) (pH 7.4) and diluted to a concentration of approximately 2x10^6 CFU/ml of phosphate-buffered saline (pH 6.0) supplemented with 0.1 % (v/v) Tween-20 (hereafter designated as PBS-Tw). […] […] As negative controls, bovine serum albumin (BSA; Sigma) or no peptide were included.

| Substance | antibacterial activity in infected mice (result in words) [1] | mean t1/2 (removal from the circulation) [2] | killing of L. monocytogenes (result in words) (L. monocytogenes) | killing of antibiotic resistant S. aureus (result in words) [3] | killing of K. pneumoniae (result in words) (K. pneumoniae) | killing of E. coli by synthetic peptides (result in words) (E. coli) | bactericidal activity against the various bacteria (bacteria) | further results |
| --- | --- | --- | --- | --- | --- | --- | --- | --- |
| FQWQRNMRKVR [hLF(21-31), Mr 1,548; includes the second cationic domain, reference compound] | less effective than hLF(1-11) | ~2 min | – | – | – | – | – | amount with which maximum effects on the number of viable bacteria were seen [1]: 10 nmol |
| GRRRRSVQWCA [hLF(1-11), Mr 1,374] | much more effective than hLF(4-11) | ~9 min | considerably (p<0.05) more efficient than hLF(3-11) | considerably (p<0.05) more efficient than hLF(3-11) | killed | killed | displayed bactericidal activity | bactericidal efficiency relative to hLF(21-31) (L. monocytogenes; L. monocytogenes, FIGS. 3A-3C): at least ten times more (p<0.05) efficient than hLF(21-31); bactericidal efficiency relative to hLF(21-31) ([3]; antibiotic resistant S. aureus, FIGS. 3A-3C): at least ten times more (p<0.05) efficient than hLF(21-31); amount with which maximum effects on the number of viable bacteria were seen [1]: 0.1 nmol; Uptake by bladder ([2]; interval 1 min): 10±1.5 % ID; Uptake by kidneys ([2]; interval 1 min): 18±3.8 % ID; Uptake by liver ([2]; interval 1 min): 20±1.6 % ID; Uptake by bladder ([2]; interval 15 min): 11±7.5 % ID; Uptake by kidneys ([2]; interval 15 min): 21±9.3 % ID; Uptake by liver ([2]; interval 15 min): 20±4.9 % ID; Uptake by bladder ([2]; interval 30 min): 21±5.7 % ID; Uptake by kidneys ([2]; interval 30 min): 17±5.7 % ID; Uptake by liver ([2]; interval 30 min): 20±1.6 % ID; Uptake by bladder ([2]; interval 60 min): 22±5.6 % ID; Uptake by kidneys ([2]; interval 60 min): 14±0.4 % ID; Uptake by liver ([2]; interval 60 min): 27±0.6 % ID; amount of radiolabeled peptide at the site of infection ([2]; within the first min after injection of 1 nmole, antibiotic resistant S. aureus-infected mice): 1-1.5 % of injected dose (ID) |
| hLF(2-11): residues 2 to 11 inclusively from the N-terminal region of hLF (RRRSVQWCAV; UniProt P02788 21-30, looked up, fragment) | – | – | considerably (p<0.05) more efficient than hLF(3-11) | considerably (p<0.05) more efficient than hLF(3-11) | killed | killed | displayed bactericidal activity | – |
| hLF(3-11): synthetic fragment of hLF(1-11): residues 3-11 of hLF (RRSVQWCAV; UniProt P02788 22-30, looked up, fragment) | – | – | significantly (p<0.05) more efficient than hLF(4-11) | significantly (p<0.05) more efficient than hLF(4-11) | killed | killed | displayed bactericidal activity | – |
| hLF(4-11): synthetic fragment of hLF(1-11): residues 4-11 of hLF (RSVQWCAV; UniProt P02788 23-30, looked up, fragment) | some antibacterial activity | approximately 1 min | – | – | – | – | displayed bactericidal activity | – |
| hLF(5-11): synthetic fragment of hLF(1-11): residues 5-11 of hLF (SVQWCAV; UniProt P02788 24-30, looked up, fragment) | – | – | – | – | – | – | ineffective | – |
| hLF(6-11): synthetic fragment of hLF(1-11): residues 6-11 of hLF (VQWCAV; UniProt P02788 25-30, looked up, fragment) | – | – | – | – | – | – | ineffective | – |
